According to patent publication EP4603105A1, “PHARMACEUTICAL COMPOSITION CONTAINING CYCLIC COMPOUND HAVING SELECTIVE KRAS INHIBITORY EFFECT AGAINST HRAS AND NRAS” (CHUGAI SEIYAKU KABUSHIKI KAISHA, priority 2022, dated 2024):

What was measured:
[1] = molecular target: GDP-bound NRAS wild-type protein (Homo sapiens, UniProt P01111); assay: Binding to NRAS by surface plasmon resonance (SPR), KD and KD ratio to KRAS; settings: ratio of KD for GDP-bound NRAS wild-type protein to KD for KRAS
Outline: (§1)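 Measured at 30°C: SPR with GDP-loaded, E. coli-expressed biotin-Avi RAS captured (~100–300 RU), ascending 75 s compound injections, HBS pH 7.4 with GDP, MgCl2, 4% DMSO. KD from 1:1 fit.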

[2] = molecular target: GDP-bound KRAS wild-type protein (Homo sapiens, UniProt P01116); assay: Binding to KRAS by surface plasmon resonance (SPR), dissociation constant KD; settings: 1:1 binding model
Chain of GDP-bound KRAS wild-type protein (P01116 1-188 isoform P01116-2): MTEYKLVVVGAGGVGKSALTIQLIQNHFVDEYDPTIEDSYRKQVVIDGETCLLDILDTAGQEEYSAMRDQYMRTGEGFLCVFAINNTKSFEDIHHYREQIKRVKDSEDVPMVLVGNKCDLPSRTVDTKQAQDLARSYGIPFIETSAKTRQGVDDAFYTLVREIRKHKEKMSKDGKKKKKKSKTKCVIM
Outline: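 Biotinylated GDP-bound RAS was captured at about 100–300 RU. Running buffer: HBS pH 7.4, 10 mM MgCl2, 10 µM GDP, 1 mM DTT, 0.01% Tween 20, 4% DMSO.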

HRAS wild-type protein = HRAS wild-type protein (Homo sapiens, UniProt P01112); assay: Binding to HRAS by surface plasmon resonance (SPR), KD and KD ratio to KRAS; settings: ratio of KD for HRAS wild-type protein to KD for KRAS
Chain of HRAS wild-type protein (P01112 whole entry): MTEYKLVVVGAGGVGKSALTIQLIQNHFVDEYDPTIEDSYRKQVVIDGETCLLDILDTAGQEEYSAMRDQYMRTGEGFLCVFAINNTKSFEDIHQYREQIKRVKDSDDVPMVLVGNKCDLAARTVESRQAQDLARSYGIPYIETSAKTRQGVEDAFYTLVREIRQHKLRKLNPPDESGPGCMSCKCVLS
Outline: as §1

[3] = tested on: human lung cancer strain NCI-H441; assay: NCI-H441 cell proliferation inhibitory activity (CellTiter-Glo, 4 days); format: cell-based; settings: NCI-H441 cells, 4 days, read-out: NCl-H441 IC50
Outline: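 Signal came from […] measured per well once the reagent was added. Beforehand, cells were cultured at 37°C and 5% carbon dioxide on a compound series serially diluted in dimethyl sulfoxide.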

Chain of GDP-bound NRAS wild-type protein (P01111 whole entry): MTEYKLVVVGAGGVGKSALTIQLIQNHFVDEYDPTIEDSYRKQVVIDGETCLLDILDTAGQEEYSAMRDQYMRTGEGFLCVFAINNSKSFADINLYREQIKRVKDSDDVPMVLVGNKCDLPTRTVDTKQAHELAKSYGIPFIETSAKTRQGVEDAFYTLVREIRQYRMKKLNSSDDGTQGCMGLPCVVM

Row | SMILES | NRAS /KRAS [1] | Kd [2] | HRAS /KRAS (HRAS wild-type protein) | IC50 [3]
1 | CCC(CC)[C@H]1C(=O)N(C)[C@H](C(=O)N(C)C)CC(=O)N(C)[C@@H](COC)C(=O)N[C@@H]([C@@H](C)CC)C(=O)N(C)CC(=O)N(C)[C@H]2C/C=C\CCN(C2=O)[C@@H](Cc2ccc(C(F)(F)F)cc2)C(=O)N(C)CC(=O)N[C@@H](CCc2ccc(Cl)c(Cl)c2)C(=O)N2C[C@H](OC3CCCC3)C[C@H]2C(=O)NC2(CC(C)(C)C2)C(=O)N1C [PP2648] | A (a compound having 10 or more and less than 20 is denoted as A) | 0.85 nM | A (a compound having 10 or more and less than 20 is denoted as A) | 68.5 nM
2 | CCC(CC)[C@H]1C(=O)N(C)[C@H](C(=O)N(C)C)CC(=O)N(C)[C@@H](COC)C(=O)N[C@@H]([C@@H](C)CC)C(=O)N(C)CC(=O)N(C)[C@H]2C/C=C\CCN(C2=O)[C@@H](Cc2ccc(C(F)F)cc2)C(=O)N(C)CC(=O)N[C@@H](CCc2ccc(Cl)c(Cl)c2)C(=O)N2C[C@H](OC3CCCC3)C[C@H]2C(=O)NC2(CC(C)(C)C2)C(=O)N1C [PP2649] | AA (a compound having 20 or more is denoted as AA) | 0.4 nM | A (a compound having 10 or more and less than 20 is denoted as A) | 61 nM
3 | CCC(CC)[C@H]1C(=O)N(C)[C@H](C(=O)N(C)C)CC(=O)N(C)[C@@H](COC)C(=O)N[C@@H]([C@@H](C)CC)C(=O)N2CCC[C@H]2C(=O)N(C)[C@H]2C/C=C\CCN(C2=O)[C@@H](Cc2ccc(C(F)(F)F)cc2)C(=O)N(C)CC(=O)N[C@@H](CCc2ccc(Cl)c(Cl)c2)C(=O)N2C[C@H](OC3CCCC3)C[C@H]2C(=O)NC2(CC(C)(C)C2)C(=O)N1C [PP2651] | AA (a compound having 20 or more is denoted as AA) | 1.9 nM | A (a compound having 10 or more and less than 20 is denoted as A) | 147 nM
4 | CCC(CC)[C@H]1C(=O)N(C)[C@H](C(=O)N(C)C)CC(=O)N(C)[C@@H](COC)C(=O)N[C@@H]([C@@H](C)CC)C(=O)N2CCC[C@H]2C(=O)N(C)[C@H]2C/C=C\CCN(C2=O)[C@@H](Cc2ccc(C(F)F)cc2)C(=O)N(C)CC(=O)N[C@@H](CCc2ccc(Cl)c(Cl)c2)C(=O)N2C[C@H](OC3CCCC3)C[C@H]2C(=O)NC2(CC(C)(C)C2)C(=O)N1C [PP2652] | AA (a compound having 20 or more is denoted as AA) | 1.5 nM | A (a compound having 10 or more and less than 20 is denoted as A) | 82.7 nM
5 | CC[C@H](C)[C@@H]1NC(=O)[C@H](COC)N(C)C(=O)C[C@@H](C(=O)N(C)C)N(C)C(=O)[C@H](C2CCCCC2)N(C)C(=O)C2(CC(C)(C)C2)NC(=O)[C@@H]2C[C@@H](OC(C)C)CN2C(=O)[C@H](CCc2cc(F)c(C(F)(F)F)c(F)c2)NC(=O)CN(C)C(=O)[C@H](Cc2ccc(C)cc2)N2CC/C=C\C[C@@H](C2=O)N(C)C(=O)CN(C)C1=O [PP2660] | A (a compound having 10 or more and less than 20 is denoted as A) | 0.18 nM | A (a compound having 10 or more and less than 20 is denoted as A) | 14.3 nM
6 | CC[C@H](C)[C@@H]1NC(=O)[C@H](COC)N(C)C(=O)C[C@@H](C(=O)N(C)C)N(C)C(=O)[C@H](C2CCCCC2)N(C)C(=O)C2(CC(C)(C)C2)NC(=O)[C@@H]2C[C@@H](OC(C)C)CN2C(=O)[C@H](CCc2ccc(Cl)c(Cl)c2)NC(=O)CN(C)C(=O)[C@H](Cc2ccc(C(F)(F)F)cc2)N2CC/C=C\C[C@@H](C2=O)N(C)C(=O)CN(C)C1=O [PP2662] | AA (a compound having 20 or more is denoted as AA) | 0.29 nM | A (a compound having 10 or more and less than 20 is denoted as A) | 13.1 nM
7 | CCO[C@@H]1C[C@H]2C(=O)NC3(CC(C)(C)C3)C(=O)N(C)[C@@H](C3CCCC3)C(=O)N(C)[C@H](C(=O)N3CCCCC3)CC(=O)N(C)[C@@H](COC)C(=O)N[C@@H]([C@@H](C)CC)C(=O)N(C)CC(=O)N(C)[C@H]3C/C=C\CCN(C3=O)[C@@H](Cc3ccc(C(F)(F)F)cc3)C(=O)N(C)CC(=O)N[C@@H](CCc3ccc(Cl)c(Cl)c3)C(=O)N2C1 [PP2670] | AA (a compound having 20 or more is denoted as AA) | 0.48 nM | A (a compound having 10 or more and less than 20 is denoted as A) | 25.2 nM
8 | CC[C@H](C)[C@@H]1NC(=O)[C@H](COC)N(C)C(=O)C[C@@H](C(=O)N2CCCCC2)N(C)C(=O)[C@H](C2CCCC2)N(C)C(=O)C2(CC(C)(C)C2)NC(=O)[C@@H]2C[C@@H](OC(C)C)CN2C(=O)[C@H](CCc2ccc(Cl)c(Cl)c2)NC(=O)CN(C)C(=O)[C@H](Cc2ccc(C(F)(F)F)cc2)N2CC/C=C\C[C@@H](C2=O)N(C)C(=O)CN(C)C1=O [PP2671] | A (a compound having 10 or more and less than 20 is denoted as A) | 0.67 nM | A (a compound having 10 or more and less than 20 is denoted as A) | 26.3 nM
9 | CCC[C@H]1C(=O)N[C@@H]([C@@H](C)CC)C(=O)N(C)CC(=O)N(C)[C@H]2C/C=C\CCN(C2=O)[C@@H](Cc2ccc(C)cc2)C(=O)N(C)CC(=O)N[C@@H](CCc2cc(F)c(C(F)(F)F)c(F)c2)C(=O)N2C[C@H](OCC)C[C@H]2C(=O)NC2(CC(C)(C)C2)C(=O)N(C)[C@@H](CC(C)(C)C)C(=O)N(C)[C@H](C(=O)N(C)C)CC(=O)N1C [PP2706] | A (a compound having 10 or more and less than 20 is denoted as A) | 0.076 nM | B (a compound having 3 or more and less than 10 is denoted as B) | 2.3 nM
10 | CCCOC[C@H]1C(=O)N[C@@H]([C@@H](C)CC)C(=O)N(C)CC(=O)N(C)[C@H]2C/C=C\CCN(C2=O)[C@@H](Cc2ccc(C)cc2)C(=O)N(C)CC(=O)N[C@@H](CCc2ccc(C(F)(F)F)c(OC)c2)C(=O)N2C[C@H](OCC)C[C@H]2C(=O)NC2(CC(C)(C)C2)C(=O)N(C)[C@@H](CC(C)(C)C)C(=O)N(C)[C@H](C(=O)N(C)C)CC(=O)N1C [PP2712] | A (a compound having 10 or more and less than 20 is denoted as A) | 0.11 nM | B (a compound having 3 or more and less than 10 is denoted as B) | 6.3 nM
11 | CCC[C@H]1C(=O)N[C@@H]([C@@H](C)CC)C(=O)N(C)CC(=O)N(C)[C@H]2C/C=C\CCN(C2=O)[C@@H](Cc2ccc(C)cc2)C(=O)N(C)CC(=O)N[C@@H](CCc2ccc(Cl)c(Cl)c2)C(=O)N2C[C@H](OCC)C[C@H]2C(=O)NC2(CC(C)(C)C2)C(=O)N(C)[C@@H](CC(C)(C)C)C(=O)N(C)[C@H](C(=O)N(C)C)CC(=O)N1C [PP2714] | A (a compound having 10 or more and less than 20 is denoted as A) | 0.25 nM | A (a compound having 10 or more and less than 20 is denoted as A) | 13.2 nM
12 | CCC[C@H]1C(=O)N[C@@H]([C@@H](C)CC)C(=O)N(C2CC2)CC(=O)N(C)[C@H]2C/C=C\CCN(C2=O)[C@@H](Cc2ccc(C)cc2)C(=O)N(C)CC(=O)N[C@@H](CCc2cc(F)c(C(F)(F)F)c(F)c2)C(=O)N2C[C@H](OCC)C[C@H]2C(=O)NC2(CC(C)(C)C2)C(=O)N(C)[C@@H](CC(C)(C)C)C(=O)N(C)[C@H](C(=O)N(C)C)CC(=O)N1C [PP2718] | A (a compound having 10 or more and less than 20 is denoted as A) | 0.33 nM | A (a compound having 10 or more and less than 20 is denoted as A) | 7.6 nM
13 | CCOC[C@H]1C(=O)N[C@@H]([C@@H](C)CC)C(=O)N(C2CC2)CC(=O)N(C)[C@H]2C/C=C\CCN(C2=O)[C@@H](Cc2ccc(C)cc2)C(=O)N(C)CC(=O)N[C@@H](CCc2cc(F)c(C(F)(F)F)c(F)c2)C(=O)N2C[C@H](OCC)C[C@H]2C(=O)NC2(CC(C)(C)C2)C(=O)N(C)[C@@H](CC(C)(C)C)C(=O)N(C)[C@H](C(=O)N(C)C)CC(=O)N1C [PP2720] | A (a compound having 10 or more and less than 20 is denoted as A) | 0.35 nM | A (a compound having 10 or more and less than 20 is denoted as A) | 7.7 nM
14 | CCC[C@H]1C(=O)N[C@@H]([C@@H](C)CC)C(=O)N(C2CC2)CC(=O)N(C)[C@H]2C/C=C\CCN(C2=O)[C@@H](Cc2ccc(C)cc2)C(=O)N(C)CC(=O)N[C@@H](CCc2ccc(C(F)(F)F)c(OC)c2)C(=O)N2C[C@H](OCC)C[C@H]2C(=O)NC2(CC(C)(C)C2)C(=O)N(C)[C@@H](CC(C)(C)C)C(=O)N(C)[C@H](C(=O)N(C)C)CC(=O)N1C [PP2722] | B (a compound having 3 or more and less than 10 is denoted as B) | 0.4 nM | B (a compound having 3 or more and less than 10 is denoted as B) | 13.9 nM
15 | CCC[C@H]1C(=O)N[C@@H]([C@@H](C)CC)C(=O)N(C2CC2)CC(=O)N(C)[C@H]2C/C=C\CCN(C2=O)[C@@H](Cc2ccc(C)cc2)C(=O)N(C)CC(=O)N[C@@H](CCc2ccc(Cl)c(Cl)c2)C(=O)N2C[C@H](OCC)C[C@H]2C(=O)NC2(CC(C)(C)C2)C(=O)N(C)[C@@H](CC(C)(C)C)C(=O)N(C)[C@H](C(=O)N(C)C)CC(=O)N1C [PP2726] | AA (a compound having 20 or more is denoted as AA) | 1.1 nM | A (a compound having 10 or more and less than 20 is denoted as A) | 51 nM
16 | CCC[C@H]1C(=O)N[C@@H]([C@@H](C)CC)C(=O)N(C)CC(=O)N(C)[C@H]2C/C=C\CCN(C2=O)[C@@H](Cc2ccc(C(F)(F)F)cc2)C(=O)N(C)CC(=O)N[C@@H](CCc2ccc(Cl)c(Cl)c2)C(=O)N2C[C@H](OCC)C[C@H]2C(=O)NC2(CC(C)(C)C2)C(=O)N(C)[C@@H](CC(C)(C)C)C(=O)N(C)[C@H](C(=O)N(C)C)CC(=O)N1C [PP2738] | AA (a compound having 20 or more is denoted as AA) | 0.17 nM | A (a compound having 10 or more and less than 20 is denoted as A) | 8.5 nM
